In article PMC11912475 (Journal of Medicinal Chemistry, 2025):

What was measured:
[1] = biological target: GluN1-GluN2D NMDAR subtype (Homo sapiens, UniProt O15399+Q05586); assay: FLIPR/Ca2+ assay, NMDAR GluN1-GluN2D subtype in CHO cells; assay type: cell-based; details: CHO cells, 10 μM L-glutamate and 10 μM glycine; n.d. = 50% of inhibition could not be reached at the highest concentration used
Description: (§1) These compounds were assessed for their effects on specific heterodimeric NMDAR subtypes stably overexpressed in Chinese Hamster Ovary (CHO) cells. The subtypes tested included GluN1-GluN2A, GluN1-GluN2B, GluN1-GluN2C, and GluN1-GluN2D. CHO cells expressing each of the four NMDAR subtypes were incubated with 10 μM L-glutamate, a concentration known to elicit maximal Ca^2+ influx, serving as the stimulus. Intracellular Ca^2+ levels were subsequently measured to determine the extent of NMDAR activation.
(§2) Assay buffer composition was 145 mM NaCl, 5 mM KCl, 2 mM CaCl2, 1 g/Liter D-(+)-glucose, and 20 mM HEPES (pH 7.3 adjusted with NaOH). Cells were plated at a density of 15.000/well in 384 black/clear bottom plates. […] Cells were kept at 30 °C in 5% CO2 incubator for 24 h. Cells were preloaded for 1 h with 2 μM Fluo-4 Ca^2+-sensitive probe, simultaneously with 2.5 mM probenecid, an inhibitor of nonspecific anion transport, and 500 μM ketamine to avoid cytotoxicity. […] Intracellular Ca^2+ level was monitored by FLIPR (excitation wavelength at 470–495 nm, emission wavelength at 515–575 nm) for 10 s before and 5 min after the addition of test items. All test items, including L-glutamate and glycine, were added simultaneously. […] FLIPR data were normalized as 100%, in the presence of 10 μM L-glutamate and 10 μM glycine, while as 0%, in the presence of assay buffer. […] Then, data were normalized by Excel 2013 (Microsoft Office) software, using wells added with 10 μM L-glutamate plus 10 μM glycine (column 23) as high control, and wells added with assay buffer only (column 24) as low control. To assess plate quality, Z′ calculations were performed in Excel. Z′ was calculated according to following equation: Z′ = 1–3(σh + σl)/|μh – μL| where μ and σ are the means and the standard deviations of the means of high (h) and low (l) controls, respectively. Compound concentration–response curves were plotted by Prism 8 GraphPad software, in the different experimental conditions (see Supporting Information). Data were analyzed using least-squares regression fitting, to fit data to a standard four parameters logistic equation using GraphPad Prism10. This regression fitting allowed the calculation of pIC50 and the corresponding SEM.

[2] = biological target: T1, Serotonin transporter SERT (Homo sapiens, UniProt P31645); assay: Radioligand displacement binding assay, [3H]paroxetine, SERT
T1 construct: host or cells: HEK-293
T1 sequence (P31645 whole entry): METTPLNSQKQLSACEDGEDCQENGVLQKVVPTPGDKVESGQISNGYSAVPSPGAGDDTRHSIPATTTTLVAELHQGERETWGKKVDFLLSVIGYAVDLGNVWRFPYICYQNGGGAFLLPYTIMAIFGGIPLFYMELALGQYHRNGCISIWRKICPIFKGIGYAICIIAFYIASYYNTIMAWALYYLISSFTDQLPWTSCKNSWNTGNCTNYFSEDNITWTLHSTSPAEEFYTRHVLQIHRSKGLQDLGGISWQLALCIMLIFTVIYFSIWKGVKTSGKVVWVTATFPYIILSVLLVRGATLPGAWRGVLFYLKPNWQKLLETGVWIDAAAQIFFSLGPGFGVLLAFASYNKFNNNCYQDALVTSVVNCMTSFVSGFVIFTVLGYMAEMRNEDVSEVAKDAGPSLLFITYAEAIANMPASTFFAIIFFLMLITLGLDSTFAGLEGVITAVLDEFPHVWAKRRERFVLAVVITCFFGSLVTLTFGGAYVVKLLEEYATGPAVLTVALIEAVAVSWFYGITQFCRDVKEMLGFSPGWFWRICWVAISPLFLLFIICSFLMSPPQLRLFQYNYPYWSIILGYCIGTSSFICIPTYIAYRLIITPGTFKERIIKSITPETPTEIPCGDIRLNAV

Serotonin 5-HT5A = biological target: T2, Serotonin 5-HT5A (Homo sapiens, UniProt P47898); assay: Radioligand displacement binding assay, [3H]LSD, 5-HT5A
T2 construct: host or cells: CHO-K1
T2 sequence (P47898 whole entry): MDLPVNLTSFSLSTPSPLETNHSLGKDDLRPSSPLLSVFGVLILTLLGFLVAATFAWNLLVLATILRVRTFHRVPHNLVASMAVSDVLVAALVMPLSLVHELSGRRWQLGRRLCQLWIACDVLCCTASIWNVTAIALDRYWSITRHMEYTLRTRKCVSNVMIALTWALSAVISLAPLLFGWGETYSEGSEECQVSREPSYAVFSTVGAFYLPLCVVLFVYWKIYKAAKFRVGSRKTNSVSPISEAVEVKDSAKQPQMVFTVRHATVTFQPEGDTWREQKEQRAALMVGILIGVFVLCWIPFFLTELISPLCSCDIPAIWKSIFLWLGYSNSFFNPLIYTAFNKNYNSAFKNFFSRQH

Serotonin 5-HT2C = biological target: T3, Serotonin 5-HT2C (Homo sapiens, UniProt P28335); assay: Radioligand displacement binding assay, [3H]mesulergine, 5-HT2C
T3 construct: host or cells: CHO-K1
T3 sequence (P28335 33-458): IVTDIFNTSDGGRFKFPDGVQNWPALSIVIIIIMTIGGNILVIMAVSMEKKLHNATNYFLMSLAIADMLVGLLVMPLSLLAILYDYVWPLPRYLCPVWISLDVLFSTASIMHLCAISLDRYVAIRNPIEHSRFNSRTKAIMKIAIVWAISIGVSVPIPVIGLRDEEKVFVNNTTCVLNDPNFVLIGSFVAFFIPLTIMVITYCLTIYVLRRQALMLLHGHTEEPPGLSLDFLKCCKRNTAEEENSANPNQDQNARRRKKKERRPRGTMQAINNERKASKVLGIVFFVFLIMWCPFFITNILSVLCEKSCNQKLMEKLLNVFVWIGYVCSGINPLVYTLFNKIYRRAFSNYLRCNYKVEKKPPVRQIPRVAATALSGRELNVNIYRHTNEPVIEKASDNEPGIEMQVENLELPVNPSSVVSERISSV

Histamine H1 = biological target: T4, Histamine H1 (Homo sapiens, UniProt P35367); assay: Radioligand displacement binding assay, [3H]pyrilamine, H1
T4 construct: host or cells: CHO-K1
T4 sequence (P35367 whole entry): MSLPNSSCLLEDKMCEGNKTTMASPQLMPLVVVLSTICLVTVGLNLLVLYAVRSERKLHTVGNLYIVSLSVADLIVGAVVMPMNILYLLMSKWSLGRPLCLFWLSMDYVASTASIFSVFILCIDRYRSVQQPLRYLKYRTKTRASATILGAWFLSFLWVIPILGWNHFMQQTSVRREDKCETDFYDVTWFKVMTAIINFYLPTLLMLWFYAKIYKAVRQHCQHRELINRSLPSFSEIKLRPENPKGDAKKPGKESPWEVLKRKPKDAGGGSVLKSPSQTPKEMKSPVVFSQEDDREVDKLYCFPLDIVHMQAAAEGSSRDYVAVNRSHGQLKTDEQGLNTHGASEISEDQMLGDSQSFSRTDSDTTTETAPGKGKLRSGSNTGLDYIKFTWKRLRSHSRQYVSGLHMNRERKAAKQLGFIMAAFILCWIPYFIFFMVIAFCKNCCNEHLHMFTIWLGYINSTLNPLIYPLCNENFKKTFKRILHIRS

μ opioid receptor (MOP) = biological target: T5, μ opioid receptor (MOP) (Homo sapiens, UniProt P35372); assay: biochemical; assay type: binding; details: for inhibition at 0.3 µM / inhibition at 3 µM: read-out: % inhibition of binding, MOP
T5 construct: host or cells: CHO-K1
T5 sequence (P35372 whole entry): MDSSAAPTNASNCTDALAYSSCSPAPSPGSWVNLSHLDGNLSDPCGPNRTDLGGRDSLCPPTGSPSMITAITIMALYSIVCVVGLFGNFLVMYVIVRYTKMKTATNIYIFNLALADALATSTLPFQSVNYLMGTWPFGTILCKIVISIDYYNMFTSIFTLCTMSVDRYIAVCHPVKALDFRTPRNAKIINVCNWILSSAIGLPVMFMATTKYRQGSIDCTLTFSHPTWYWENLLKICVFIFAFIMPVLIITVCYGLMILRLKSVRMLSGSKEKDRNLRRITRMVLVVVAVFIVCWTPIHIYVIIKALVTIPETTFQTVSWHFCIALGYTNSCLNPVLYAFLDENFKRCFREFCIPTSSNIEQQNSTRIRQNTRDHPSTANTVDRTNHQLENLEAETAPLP

[3] = system: Glutamate, NMDA, Phencyclidine binding site; assay: Radioligand displacement binding assay, [3H]TCP, NMDA; parameters: species or system Wistar rat
[4] = biological target: T6, Norepinephrine transporter NET (Homo sapiens, UniProt P23975); assay: Radioligand displacement binding assay, [125I]RTI-55, NET
T6 construct: host or cells: MDCK
T6 sequence (P23975 whole entry): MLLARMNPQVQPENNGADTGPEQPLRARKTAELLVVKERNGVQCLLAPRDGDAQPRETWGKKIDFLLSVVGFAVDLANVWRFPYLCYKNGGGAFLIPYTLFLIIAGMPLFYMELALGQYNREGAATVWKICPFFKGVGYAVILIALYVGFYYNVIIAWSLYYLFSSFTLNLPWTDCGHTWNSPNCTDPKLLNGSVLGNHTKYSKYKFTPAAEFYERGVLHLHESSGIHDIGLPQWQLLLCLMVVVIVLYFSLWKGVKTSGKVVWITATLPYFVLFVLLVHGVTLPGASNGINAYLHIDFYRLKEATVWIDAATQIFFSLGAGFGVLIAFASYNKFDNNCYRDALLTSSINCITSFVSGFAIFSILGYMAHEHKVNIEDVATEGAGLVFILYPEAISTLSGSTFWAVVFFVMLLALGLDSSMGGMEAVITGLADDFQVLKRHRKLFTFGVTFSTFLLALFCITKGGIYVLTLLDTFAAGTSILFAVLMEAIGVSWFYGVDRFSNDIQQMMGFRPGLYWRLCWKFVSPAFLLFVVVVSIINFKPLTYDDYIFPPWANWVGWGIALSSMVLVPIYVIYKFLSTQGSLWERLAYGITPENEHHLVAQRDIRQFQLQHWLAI

Serotonin 5-HT1A = biological target: T7, Serotonin 5-HT1A (Homo sapiens, UniProt P08908); assay: Radioligand displacement binding assay, [3H]8-OH-DPAT, 5-HT1A
T7 construct: host or cells: CHO-K1
T7 sequence (P08908 1-422): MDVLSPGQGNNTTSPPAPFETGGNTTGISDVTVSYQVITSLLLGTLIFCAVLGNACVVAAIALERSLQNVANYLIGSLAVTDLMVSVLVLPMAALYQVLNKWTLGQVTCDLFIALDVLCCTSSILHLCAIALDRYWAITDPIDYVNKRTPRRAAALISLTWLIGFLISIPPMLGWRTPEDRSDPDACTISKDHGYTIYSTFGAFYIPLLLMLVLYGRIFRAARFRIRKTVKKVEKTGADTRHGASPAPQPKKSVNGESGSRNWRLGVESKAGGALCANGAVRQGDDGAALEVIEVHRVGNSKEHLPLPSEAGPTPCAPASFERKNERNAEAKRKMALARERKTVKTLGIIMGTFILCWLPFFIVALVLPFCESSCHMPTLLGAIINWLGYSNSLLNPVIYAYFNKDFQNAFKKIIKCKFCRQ

Serotonin 5-HT7 = biological target: T8, Serotonin 5-HT7 (Homo sapiens, UniProt P34969); assay: Radioligand displacement binding assay, [3H]LSD, 5-HT7
T8 construct: host or cells: CHO-K1
T8 sequence (P34969 whole entry): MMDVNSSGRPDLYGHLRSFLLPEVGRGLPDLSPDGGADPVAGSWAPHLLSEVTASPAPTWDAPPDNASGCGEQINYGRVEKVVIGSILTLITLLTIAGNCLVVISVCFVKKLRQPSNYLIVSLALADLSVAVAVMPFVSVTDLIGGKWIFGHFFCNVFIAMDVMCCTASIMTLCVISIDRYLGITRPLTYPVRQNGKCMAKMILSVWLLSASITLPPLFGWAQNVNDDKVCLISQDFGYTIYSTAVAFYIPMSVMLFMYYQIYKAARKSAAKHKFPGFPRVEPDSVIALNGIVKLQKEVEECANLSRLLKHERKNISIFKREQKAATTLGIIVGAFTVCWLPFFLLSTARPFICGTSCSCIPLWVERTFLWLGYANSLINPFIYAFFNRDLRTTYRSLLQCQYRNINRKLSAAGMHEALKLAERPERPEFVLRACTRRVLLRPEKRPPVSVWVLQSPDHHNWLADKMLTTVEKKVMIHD

Sigma σ1 = biological target: T9, Sigma σ1 (Homo sapiens, UniProt Q99720); assay: Radioligand displacement binding assay, [3H]pentazocine, sigma σ1
T9 construct: Sigma σ1; Source: Human Jurkat cells; host or cells: Jurkat
T9 sequence (Q99720 whole entry): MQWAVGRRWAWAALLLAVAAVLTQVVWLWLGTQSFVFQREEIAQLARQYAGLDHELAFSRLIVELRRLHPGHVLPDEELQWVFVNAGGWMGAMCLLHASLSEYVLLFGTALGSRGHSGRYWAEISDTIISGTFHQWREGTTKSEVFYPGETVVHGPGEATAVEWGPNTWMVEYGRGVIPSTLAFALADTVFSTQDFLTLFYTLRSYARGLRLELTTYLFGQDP

[5] = biological target: GluN1-GluN2A NMDAR subtype (Homo sapiens, UniProt Q05586+Q12879); assay: FLIPR/Ca2+ assay, NMDAR GluN1-GluN2A subtype in CHO cells; assay type: cell-based; details: CHO cells, 10 μM L-glutamate and 10 μM glycine; n.d. = 50% of inhibition could not be reached at the highest concentration used
Description: as §1, §2

[6] = biological target: GluN1-GluN2C NMDAR subtype (Homo sapiens, UniProt Q05586+Q14957); assay: FLIPR/Ca2+ assay, NMDAR GluN1-GluN2C subtype in CHO cells; assay type: cell-based; details: CHO cells, 10 μM L-glutamate and 10 μM glycine; n.d. = 50% of inhibition could not be reached at the highest concentration used
Description: as §1, §2

Muscarinic M5 = biological target: T10, Muscarinic M5 (Homo sapiens, UniProt P08912); assay: Radioligand displacement binding assay, [3H]N-methylscopolamine, M5
T10 construct: host or cells: CHO-K1
T10 sequence (P08912 1-532): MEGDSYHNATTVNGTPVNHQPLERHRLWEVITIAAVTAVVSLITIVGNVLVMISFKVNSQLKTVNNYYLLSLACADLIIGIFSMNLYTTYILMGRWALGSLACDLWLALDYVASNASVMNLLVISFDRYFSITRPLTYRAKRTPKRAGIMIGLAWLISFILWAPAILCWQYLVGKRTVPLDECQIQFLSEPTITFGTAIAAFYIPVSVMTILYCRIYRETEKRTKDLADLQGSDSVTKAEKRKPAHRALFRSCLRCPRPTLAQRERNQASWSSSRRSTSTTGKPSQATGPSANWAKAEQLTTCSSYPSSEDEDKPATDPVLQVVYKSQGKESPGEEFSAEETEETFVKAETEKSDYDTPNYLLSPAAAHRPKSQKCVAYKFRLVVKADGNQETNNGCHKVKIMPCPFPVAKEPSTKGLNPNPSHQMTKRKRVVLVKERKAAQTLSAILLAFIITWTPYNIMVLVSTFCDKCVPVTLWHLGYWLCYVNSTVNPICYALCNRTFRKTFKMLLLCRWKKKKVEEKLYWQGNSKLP

[7] = biological target: T11, GluN1-GluN2B NMDAR subtype (Homo sapiens, UniProt Q05586+Q13224); assay: FLIPR/Ca2+ assay, NMDAR GluN1-GluN2B subtype in CHO cells; assay type: cell-based; details: CHO cells, 10 μM L-glutamate and 10 μM glycine; n.d. = 50% of inhibition could not be reached at the highest concentration used
T11 construct: host or cells: NR1-2B-CHO cells, constitutive expression
Description: as §1, §2

Serotonin 5-HT2A = biological target: T12, Serotonin 5-HT2A (Homo sapiens, UniProt P28223); assay: Radioligand displacement binding assay, [3H]ketanserin, 5-HT2A
T12 construct: host or cells: CHO-K1
T12 sequence (P28223 whole entry): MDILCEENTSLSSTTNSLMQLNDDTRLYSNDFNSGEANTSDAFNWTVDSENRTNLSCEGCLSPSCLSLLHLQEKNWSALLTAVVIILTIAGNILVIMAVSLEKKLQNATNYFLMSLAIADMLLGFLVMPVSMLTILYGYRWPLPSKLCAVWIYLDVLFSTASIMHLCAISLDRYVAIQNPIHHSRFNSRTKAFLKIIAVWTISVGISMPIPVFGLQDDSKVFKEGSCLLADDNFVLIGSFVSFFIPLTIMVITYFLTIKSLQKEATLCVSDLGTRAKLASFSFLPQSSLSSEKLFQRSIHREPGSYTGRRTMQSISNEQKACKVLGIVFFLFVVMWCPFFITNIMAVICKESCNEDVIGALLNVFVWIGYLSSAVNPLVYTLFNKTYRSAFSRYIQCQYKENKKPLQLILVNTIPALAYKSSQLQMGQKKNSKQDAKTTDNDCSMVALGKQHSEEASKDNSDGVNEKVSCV

Sequence of GluN1-GluN2D NMDAR subtype (O15399 28-1336, other chains not shown): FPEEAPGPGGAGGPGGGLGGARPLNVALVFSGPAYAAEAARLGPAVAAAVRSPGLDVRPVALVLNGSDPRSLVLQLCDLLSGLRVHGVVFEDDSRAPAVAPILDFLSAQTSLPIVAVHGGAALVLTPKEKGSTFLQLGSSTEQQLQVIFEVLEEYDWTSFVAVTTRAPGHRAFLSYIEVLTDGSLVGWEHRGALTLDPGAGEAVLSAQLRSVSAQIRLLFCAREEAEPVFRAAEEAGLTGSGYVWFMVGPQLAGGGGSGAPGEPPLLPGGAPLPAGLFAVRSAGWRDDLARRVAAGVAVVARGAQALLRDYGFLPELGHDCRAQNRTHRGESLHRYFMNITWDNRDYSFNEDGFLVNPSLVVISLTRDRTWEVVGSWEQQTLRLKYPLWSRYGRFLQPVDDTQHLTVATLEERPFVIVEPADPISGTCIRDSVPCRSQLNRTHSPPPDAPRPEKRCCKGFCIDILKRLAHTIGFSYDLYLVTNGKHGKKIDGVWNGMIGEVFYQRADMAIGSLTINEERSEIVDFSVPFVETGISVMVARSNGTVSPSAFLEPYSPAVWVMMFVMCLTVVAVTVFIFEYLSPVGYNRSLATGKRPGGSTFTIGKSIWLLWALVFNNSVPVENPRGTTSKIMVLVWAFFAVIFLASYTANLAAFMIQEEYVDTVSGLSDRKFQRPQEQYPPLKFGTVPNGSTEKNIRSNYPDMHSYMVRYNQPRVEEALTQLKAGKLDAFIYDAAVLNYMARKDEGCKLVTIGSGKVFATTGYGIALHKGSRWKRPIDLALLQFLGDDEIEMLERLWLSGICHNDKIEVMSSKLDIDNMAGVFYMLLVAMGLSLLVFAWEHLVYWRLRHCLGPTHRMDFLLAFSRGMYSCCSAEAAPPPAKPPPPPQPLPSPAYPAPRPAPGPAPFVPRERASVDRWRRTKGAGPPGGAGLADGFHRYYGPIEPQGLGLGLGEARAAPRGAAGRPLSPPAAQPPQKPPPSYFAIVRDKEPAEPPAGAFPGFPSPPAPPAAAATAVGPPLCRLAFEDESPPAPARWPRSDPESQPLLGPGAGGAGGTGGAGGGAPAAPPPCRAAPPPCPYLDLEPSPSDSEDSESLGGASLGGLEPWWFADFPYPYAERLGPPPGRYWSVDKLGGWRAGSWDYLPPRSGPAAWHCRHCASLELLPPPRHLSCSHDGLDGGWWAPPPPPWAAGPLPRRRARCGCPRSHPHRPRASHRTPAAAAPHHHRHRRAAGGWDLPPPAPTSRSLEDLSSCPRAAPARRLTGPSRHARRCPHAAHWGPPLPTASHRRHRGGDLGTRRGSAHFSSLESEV

| Structure (SMILES) | pIC50 (mean ± SEM) GluN1-GluN2D [1] | inhibition at 1 µM [2] [%] | inhibition at 10 µM ([2]; 10 μM) [%] | inhibition at 1 µM (Serotonin 5-HT5A) [%] | inhibition at 10 µM (Serotonin 5-HT5A) [%] | inhibition at 0.3 µM (Serotonin 5-HT2C) [%] | inhibition at 3 µM (Serotonin 5-HT2C) [%] | inhibition at 10 µM (Histamine H1) [%] | inhibition at 30 µM (Histamine H1) [%] | inhibition at 0.3 µM (μ opioid receptor (MOP)) [%] | inhibition at 3 µM (μ opioid receptor (MOP)) [%] | % inhibition of binding, NMDA ([3]; 1 μM) [%] | inhibition at 1 µM [4] [%] | inhibition at 10 µM [4] [%] | inhibition at 0.3 µM (Serotonin 5-HT1A) [%] | inhibition at 3 µM (Serotonin 5-HT1A) [%] | inhibition at 1 µM (Serotonin 5-HT7) [%] | inhibition at 10 µM (Serotonin 5-HT7) [%] | inhibition at 0.3 µM (Sigma σ1) [%] | inhibition at 3 µM (Sigma σ1) [%] | also measured |
| --- | --- | --- | --- | --- | --- | --- | --- | --- | --- | --- | --- | --- | --- | --- | --- | --- | --- | --- | --- | --- | --- |
| CC[C@H](O)C(C[C@H](C)NC)(c1ccccc1)c1ccccc1 [(3S,6S)-NML, (3S,6S)-6-(methylamino)-4,4-diphenylheptan-3-ol] | 4.6 ± 0.065 | 2 | 25 | 1 | 10 | 5 | 28 | 33 | 65 | 65 | 95 | 9 | -12 | 12 | -4 | 1 | 12 | 23 | 46 | 77 | displacement at the histamine H1 receptor, in words (Histamine H1; concentration not given): significant displacement percentages; displacement at the MOP, in words (μ opioid receptor (MOP); concentration not given): high displacement percentages; displacement at the Sigma-1 (σ1) receptor, in words (Sigma σ1; concentration not given): high displacement percentages; pIC50 (mean ± SEM) GluN1-GluN2A [5]: 4.6 ± 0.062; pIC50 (mean ± SEM) GluN1-GluN2C [6]: 4.7 ± 0.042; inhibition at 1 µM (Muscarinic M5): 2%; inhibition at 10 µM (Muscarinic M5): 15%; pIC50 (mean ± SEM) GluN1-GluN2B [7]: 4.7 ± 0.080; inhibition at 0.3 µM (Serotonin 5-HT2A): -10%; inhibition at 3 µM (Serotonin 5-HT2A): -11% |
| CC[C@@H](O)C(C[C@@H](C)NC)(c1ccccc1)c1ccccc1 [(3R,6R)-NML, (3R,6R)-6-(methylamino)-4,4-diphenylheptan-3-ol] | 5.0 ± 0.052 | 18 | 69 | 13 | 63 | 18 | 16 | 15 | 20 | 4 | 11 | 17 | -2 | 14 | -9 | -10 | 4 | 5 | 4 | 33 | % inhibition of binding, SERT ([2]; 10 μM): displaced; pKi (mean ± SEM) [3H]diprenorphine, MOP (μ opioid receptor (MOP)): 5.64 ± 0.09; % inhibition of binding, NMDA ([3]; 10 μM): 57%; pKi (mean ± SEM) [3H]TCP, NMDA ([3]; Wistar rat cerebral cortex, 4.0 nM [3H]TCP): 5.56 ± 0.07; pIC50 (mean ± SEM) GluN1-GluN2A [5]: 5.0 ± 0.081; pIC50 (mean ± SEM) GluN1-GluN2C [6]: 5.0 ± 0.048; inhibition at 1 µM (Muscarinic M5): 15%; inhibition at 10 µM (Muscarinic M5): 43%; pIC50 (mean ± SEM) GluN1-GluN2B [7]: 4.8 ± 0.055; inhibition at 0.3 µM (Serotonin 5-HT2A): 0%; inhibition at 3 µM (Serotonin 5-HT2A): -3% |
